{"source": "patent US11865126B2", "about": "“Method for treating anxiety disorders, headache disorders, and eating disorders with psilocybin” (priority 2019, dated 2024)", "tested_on": "healthy subjects", "assay": "Pictorial Empathy Test (PET)", "assay_type": "in vivo, human", "experimental": "In some embodiments, the Pictorial Empathy Test (PET) is utilized to evaluate the effect of psilocybin on affective empathy.\nThe following list of outcome measures are non-exhaustive. • a. The short-term change from Baseline (Day −1 [Visit 2]) to Day 7 (Visit 5) in cognitive measures of attention, spatial and working memory and executive function was measured by a composite score of the CANTAB Panel (Spatial Working Memory [SWM], Rapid Visual Information Processing [RVP], Paired Associates Learning [PAL]). • b. The short-term change from Baseline (Day −1 [Visit 2]) to Day 7 (Visit 5) in Social Cognition Panel scales (Pictorial Empathy Test [PET], Reading the Mind in the Eyes Test [RMET], Toronto Empathy Questionnaire [TEQ], Social Value Orientation [SVO], Scale of Social Responsibility [SSR]). • c. The change from Baseline (Day −1 [Visit 2]) to Day 28 (Visit 6) in cognitive measures of attention, spatial and working memory and executive function as measured by a composite score of the CANTAB Panel (SWM, RVP, PAL). • d. The long-term change from Baseline (Day −1 [Visit 2]) to Day 84 (Visit 7) in Social Cognition Panel scales (PET, RMET, TEQ, SVO, SSR). • e. Dose-related differences between cognitive effects of psilocybin at Baseline (Day −1 [Visit 2]), Day 7 (Visit 5) and Day 28 (Visit 6), as measured by a composite score of the CANTAB Panel (SWM, RVP, PAL). • f. Dose-related differences between psychological effects of psilocybin at Baseline (Day −1 [Visit 2]), Day 7 (Visit 5) and Day 84 (Visit 7), as measured by Social Cognition Panel scales (PET, RMET, TEQ, SVO, SSR). • g. Differences in cognitive effects of psilocybin between psilocybin-naïve and experienced subjects at Baseline (Day −1 [Visit 2]), Day 7 (Visit 5) and Day 28 (Visit 6), as measured by a composite score of the CANTAB Panel (SWM, RVP, PAL). • h. Differences in Positive and Negative Affect Schedule (PANAS) after study drug administration on Day 0 (Visit 3). • i. Differences between psilocybin and placebo in the Emotion Recognition Test (ERT), Intra-Extra Dimensional Set Shift (IED), One Touch Stockings (OTS), Verbal Fluency and Digit Span Forward at Day 7 (Visit 5). • j. A composite score of the CANTAB Panel, including the following tests: • i. Spatial Working Memory (SWM) (performed at Visit 2, Visit 5, and Visit 6). • ii. Rapid Visual Information Processing (RVP) (performed at Visit 2, Visit 5, and Visit 6). • iii. Paired Associates Learning (PAL) (performed at Visit 2, Visit 5, and Visit 6). • k. Cognitive Flexibility Panel • i. Emotion Recognition Task (ERT) (performed at Visit 5). • ii. Intra-Extra Dimensional Set Shift (IED) (performed at Visit 5). • iii. One Touch Stockings (OTS) (performed at Visit 5). • iv. Verbal Fluency (performed at Visit 5). • v. Digit Span Forward (performed at Visit 5). • l. Five Dimension Altered States of Consciousness questionnaire (5D-ASC) (performed at Visit 3). • m. PANAS (performed at Visit 2 and Visit 3). • n. NEO-Five Factor Inventory (NEO-FFI) (performed at Visit 2, Visit 5, and Visit 7). • o. Symptom Checklist-90 item (SCL-90) (performed at Visit 2, Visit 5, and Visit 7). • p. Life Changes Inventory (LCI): The LCI measures changes in attitudes and values after near-death experiences often used to evaluate personal transformation following spiritually oriented experiences and practices. (performed at Visit 5 and Visit 7). • q. Social Cognition Panel scales • i. Pictorial Empathy Test (PET) (performed at Visit 2, Visit 5, and Visit 7). • ii. Reading the Mind in the Eyes Test (RMET) (performed at Visit 2, Visit 5, and Visit 7). • iii. Social Value Orientation (SVO) (performed at Visit 2, Visit 5, and Visit 7). • iv. Toronto Empathy Questionnaire (TEQ) (performed at Visit 2, Visit 5, and Visit 7). • v. Scale of Social Responsibility (SSR) (performed at Visit 2, Visit 5, and Visit 7). • r. Sheehan Suicidality Tracking Scale (SSTS) • s. Mini International Neuropsychiatric Interview (MINI). • t. […]", "data": [{"compound": "CN(C)CCc1c[nH]c2cccc(OP(=O)(O)O)c12", "note": "[psilocybin]", "values": [{"measurement": "PET change from baseline, LS mean difference Psilocybin 10 mg - Placebo", "setting": "Day 7, MMRM", "result": "−0.1"}, {"measurement": "PET change from baseline, LS mean difference Psilocybin 25 mg - Placebo", "setting": "Day 7, MMRM", "result": 0.2}, {"measurement": "PET change from baseline, LS mean difference Psilocybin 25 mg-10 mg", "setting": "Day 7, MMRM", "result": 0.3}, {"measurement": "PET change from baseline, LS mean difference Psilocybin 10 mg - Placebo", "setting": "Day 84, MMRM", "result": "−0.1"}, {"measurement": "PET change from baseline, LS mean difference Psilocybin 25 mg - Placebo", "setting": "Day 84, MMRM", "result": 0.1}, {"measurement": "PET change from baseline, LS mean difference Psilocybin 25 mg-10 mg", "setting": "Day 84, MMRM", "result": 0.3}]}]}
